Nc1cc(C(F)(F)F)c(-c2nc(N3CCOCC3)nc(N3CCOCC3)n2)cn1 [Bimiralisib, 5-(4,6-dimorpholino-1,3,5-triazin-2-yl)-4-(trifluoromethyl)pyridin-2-amine]
28 days: Time to normalization of grade 3 elevated alanine and aspartate aminotransferase after therapy discontinuation (patient 4, related to treatment)
2: Hyperglycemia, Grade 3/4, total number of events (n = 8) | Investigations, Grade 3/4, total number of events (n = 8) | Metabolism and nutrition disorders, Grade 3/4, total number of events (n = 8) | Musculoskeletal and connective tissue disorders, Grade 1, total number of events (n = 8) | Nausea, Grade 2, total number of events (n = 8) | Nervous system disorders, Grade 1, total number of events (n = 8) | Pneumonia aspiration, Grade 3/4, total number of events (n = 8) | Psychiatric disorders, Grade 1, total number of events (n = 8) | Rash, Grade 1, total number of events (n = 8) | Vomiting, Grade 2, total number of events (n = 8)
10: Nonfatal SAEs not related to bimiralisib (on-treatment period)
3: Investigations, Grade 1, total number of events (n = 8) | Metabolism and nutrition disorders, Grade 2, total number of events (n = 8)
3 (37.5) n (%): Infections and infestations, Grade 3/4, patients (n = 8) | Investigations, Grade 1, patients (n = 8) | Respiratory, thoracic and mediastinal disorders, Grade 3/4, patients (n = 8)
1 (12.5) n (%): General disorders and administration site conditions, Grade 2, patients (n = 8) | General disorders and administration site conditions, Grade 3/4, patients (n = 8) | Hemorrhage, Grade 3/4, patients (n = 8) | Hyperglycemia, Grade 1, patients (n = 8) | Hypocalcemia, Grade 2, patients (n = 8) | Hypotension, Grade 1, patients (n = 8) | Injury, poisoning and procedural complications, Grade 1, patients (n = 8) | Investigations, Grade 3/4, patients (n = 8) | Laryngeal stenosis, Grade 3/4, patients (n = 8) | Metabolism and nutrition disorders, Grade 1, patients (n = 8) | Musculoskeletal and connective tissue disorders, Grade 1, patients (n = 8) | Nausea, Grade 1, patients (n = 8) | Neck pain, Grade 1, patients (n = 8) | Nervous system disorders, Grade 1, patients (n = 8) | Nervous system disorders, Grade 2, patients (n = 8) | Osteomyelitis acute, Grade 3/4, patients (n = 8) | Pain in jaw, Grade 1, patients (n = 8) | Platelet count decreased, Grade 1, patients (n = 8) | Presyncope, Grade 2, patients (n = 8) | Pruritus, Grade 1, patients (n = 8) | Pyrexia, Grade 1, patients (n = 8) | Renal and urinary disorders, Grade 1, patients (n = 8) | Renal and urinary disorders, Grade 3/4, patients (n = 8) | Renal injury, Grade 3/4, patients (n = 8) | Respiratory, thoracic and mediastinal disorders, Grade 1, patients (n = 8) | Seizure, Grade 1, patients (n = 8) | Sunburn, Grade 1, patients (n = 8) | Tinnitus, Grade 1, patients (n = 8) | Urinary tract discomfort, Grade 1, patients (n = 8) | Vascular disorders, Grade 1, patients (n = 8) | Vascular disorders, Grade 3/4, patients (n = 8)
2 (25.0) n (%): Hyperglycemia, Grade 3/4, patients (n = 8) | Metabolism and nutrition disorders, Grade 2, patients (n = 8) | Metabolism and nutrition disorders, Grade 3/4, patients (n = 8) | Nausea, Grade 2, patients (n = 8) | Pneumonia aspiration, Grade 3/4, patients (n = 8) | Psychiatric disorders, Grade 1, patients (n = 8) | Rash, Grade 1, patients (n = 8) | Skin and subcutaneous tissue disorders, Grade 1, patients (n = 8) | Vomiting, Grade 2, patients (n = 8)
0 n (%): Hemorrhage, Grade 1, patients (n = 8) | Hemorrhage, Grade 2, patients (n = 8) | Hyperglycemia, Grade 2, patients (n = 8) | Hypocalcemia, Grade 1, patients (n = 8) | Hypocalcemia, Grade 3/4, patients (n = 8) | Hypotension, Grade 2, patients (n = 8) | Hypotension, Grade 3/4, patients (n = 8) | Injury, poisoning and procedural complications, Grade 2, patients (n = 8) | Injury, poisoning and procedural complications, Grade 3/4, patients (n = 8) | Investigations, Grade 2, patients (n = 8) | Laryngeal stenosis, Grade 1, patients (n = 8) | Laryngeal stenosis, Grade 2, patients (n = 8) | Musculoskeletal and connective tissue disorders, Grade 2, patients (n = 8) | Musculoskeletal and connective tissue disorders, Grade 3/4, patients (n = 8) | Nausea, Grade 3/4, patients (n = 8) | Neck pain, Grade 2, patients (n = 8) | Neck pain, Grade 3/4, patients (n = 8) | Nervous system disorders, Grade 3/4, patients (n = 8) | Osteomyelitis acute, Grade 1, patients (n = 8) | Osteomyelitis acute, Grade 2, patients (n = 8) | Pain in jaw, Grade 2, patients (n = 8) | Pain in jaw, Grade 3/4, patients (n = 8) | Platelet count decreased, Grade 2, patients (n = 8) | Platelet count decreased, Grade 3/4, patients (n = 8) | Pneumonia aspiration, Grade 1, patients (n = 8) | Pneumonia aspiration, Grade 2, patients (n = 8) | Presyncope, Grade 1, patients (n = 8) | Presyncope, Grade 3/4, patients (n = 8) | Pruritus, Grade 2, patients (n = 8) | Pruritus, Grade 3/4, patients (n = 8) | Psychiatric disorders, Grade 2, patients (n = 8) | Psychiatric disorders, Grade 3/4, patients (n = 8) | Pyrexia, Grade 2, patients (n = 8) | Pyrexia, Grade 3/4, patients (n = 8) | Rash, Grade 2, patients (n = 8) | Rash, Grade 3/4, patients (n = 8) | Renal and urinary disorders, Grade 2, patients (n = 8) | Renal injury, Grade 1, patients (n = 8) | Renal injury, Grade 2, patients (n = 8) | Respiratory, thoracic and mediastinal disorders, Grade 2, patients (n = 8) | Seizure, Grade 2, patients (n = 8) | Seizure, Grade 3/4, patients (n = 8) | Skin and subcutaneous tissue disorders, Grade 2, patients (n = 8) | Skin and subcutaneous tissue disorders, Grade 3/4, patients (n = 8) | Sunburn, Grade 2, patients (n = 8) | Sunburn, Grade 3/4, patients (n = 8) | Tinnitus, Grade 2, patients (n = 8) | Tinnitus, Grade 3/4, patients (n = 8) | Urinary tract discomfort, Grade 2, patients (n = 8) | Urinary tract discomfort, Grade 3/4, patients (n = 8) | Vascular disorders, Grade 2, patients (n = 8) | Vomiting, Grade 1, patients (n = 8) | Vomiting, Grade 3/4, patients (n = 8)
6: General disorders and administration site conditions, Grade 1, total number of events (n = 8)
8 patients: Patients with at least one treatment-emergent AE (of 8)
0: Hemorrhage, Grade 1, total number of events (n = 8) | Hemorrhage, Grade 2, total number of events (n = 8) | Hyperglycemia, Grade 2, total number of events (n = 8) | Hypocalcemia, Grade 1, total number of events (n = 8) | Hypocalcemia, Grade 3/4, total number of events (n = 8) | Hypotension, Grade 2, total number of events (n = 8) | Hypotension, Grade 3/4, total number of events (n = 8) | Injury, poisoning and procedural complications, Grade 2, total number of events (n = 8) | Injury, poisoning and procedural complications, Grade 3/4, total number of events (n = 8) | Investigations, Grade 2, total number of events (n = 8) | Laryngeal stenosis, Grade 1, total number of events (n = 8) | Laryngeal stenosis, Grade 2, total number of events (n = 8) | Musculoskeletal and connective tissue disorders, Grade 2, total number of events (n = 8) | Musculoskeletal and connective tissue disorders, Grade 3/4, total number of events (n = 8) | Nausea, Grade 3/4, total number of events (n = 8) | Neck pain, Grade 2, total number of events (n = 8) | Neck pain, Grade 3/4, total number of events (n = 8) | Nervous system disorders, Grade 3/4, total number of events (n = 8) | Osteomyelitis acute, Grade 1, total number of events (n = 8) | Osteomyelitis acute, Grade 2, total number of events (n = 8) | Pain in jaw, Grade 2, total number of events (n = 8) | Pain in jaw, Grade 3/4, total number of events (n = 8) | Platelet count decreased, Grade 2, total number of events (n = 8) | Platelet count decreased, Grade 3/4, total number of events (n = 8) | Pneumonia aspiration, Grade 1, total number of events (n = 8) | Pneumonia aspiration, Grade 2, total number of events (n = 8) | Presyncope, Grade 1, total number of events (n = 8) | Presyncope, Grade 3/4, total number of events (n = 8) | Pruritus, Grade 2, total number of events (n = 8) | Pruritus, Grade 3/4, total number of events (n = 8) | Psychiatric disorders, Grade 2, total number of events (n = 8) | Psychiatric disorders, Grade 3/4, total number of events (n = 8) | Pyrexia, Grade 2, total number of events (n = 8) | Pyrexia, Grade 3/4, total number of events (n = 8) | Rash, Grade 2, total number of events (n = 8) | Rash, Grade 3/4, total number of events (n = 8) | Renal and urinary disorders, Grade 2, total number of events (n = 8) | Renal injury, Grade 1, total number of events (n = 8) | Renal injury, Grade 2, total number of events (n = 8) | Respiratory, thoracic and mediastinal disorders, Grade 2, total number of events (n = 8) | Seizure, Grade 2, total number of events (n = 8) | Seizure, Grade 3/4, total number of events (n = 8) | Skin and subcutaneous tissue disorders, Grade 2, total number of events (n = 8) | Skin and subcutaneous tissue disorders, Grade 3/4, total number of events (n = 8) | Sunburn, Grade 2, total number of events (n = 8) | Sunburn, Grade 3/4, total number of events (n = 8) | Tinnitus, Grade 2, total number of events (n = 8) | Tinnitus, Grade 3/4, total number of events (n = 8) | Urinary tract discomfort, Grade 2, total number of events (n = 8) | Urinary tract discomfort, Grade 3/4, total number of events (n = 8) | Vascular disorders, Grade 2, total number of events (n = 8) | Vomiting, Grade 1, total number of events (n = 8) | Vomiting, Grade 3/4, total number of events (n = 8) | Wound infection, Grade 3/4, total number of events (n = 8)
4: Respiratory, thoracic and mediastinal disorders, Grade 3/4, total number of events (n = 8) | Skin and subcutaneous tissue disorders, Grade 1, total number of events (n = 8)
1: General disorders and administration site conditions, Grade 2, total number of events (n = 8) | General disorders and administration site conditions, Grade 3/4, total number of events (n = 8) | Hemorrhage, Grade 3/4, total number of events (n = 8) | Hyperglycemia, Grade 1, total number of events (n = 8) | Hypocalcemia, Grade 2, total number of events (n = 8) | Hypotension, Grade 1, total number of events (n = 8) | Injury, poisoning and procedural complications, Grade 1, total number of events (n = 8) | Laryngeal stenosis, Grade 3/4, total number of events (n = 8) | Metabolism and nutrition disorders, Grade 1, total number of events (n = 8) | Nausea, Grade 1, total number of events (n = 8) | Neck pain, Grade 1, total number of events (n = 8) | Nervous system disorders, Grade 2, total number of events (n = 8) | Osteomyelitis acute, Grade 3/4, total number of events (n = 8) | Pain in jaw, Grade 1, total number of events (n = 8) | Platelet count decreased, Grade 1, total number of events (n = 8) | Presyncope, Grade 2, total number of events (n = 8) | Pruritus, Grade 1, total number of events (n = 8) | Pyrexia, Grade 1, total number of events (n = 8) | Renal and urinary disorders, Grade 1, total number of events (n = 8) | Renal and urinary disorders, Grade 3/4, total number of events (n = 8) | Renal injury, Grade 3/4, total number of events (n = 8) | Respiratory, thoracic and mediastinal disorders, Grade 1, total number of events (n = 8) | Seizure, Grade 1, total number of events (n = 8) | Sepsis, Grade 3/4, total number of events (n = 8) | Skin infection, Grade 3/4, total number of events (n = 8) | Sunburn, Grade 1, total number of events (n = 8) | Tinnitus, Grade 1, total number of events (n = 8) | Urinary tract discomfort, Grade 1, total number of events (n = 8) | Vascular disorders, Grade 1, total number of events (n = 8) | Vascular disorders, Grade 3/4, total number of events (n = 8)
